Literature values as cited in patent US8198020B2, “Compositions and methods for enhancing phagocytosis or phagocyte activity” (Potentia Pharmaceuticals, Inc., priority 2003, dated 2012).

Test system: metastatic colorectal cancer
Details: patients with metastatic colorectal cancer; prolonged from 15.6

Substance: Avastin: recombinant monoclonal antibody that binds to VEGF
- median survival: 18.3 months
